The subject of data set [1] is Diabrotica balteata (Corn Root Worm). Kind of data set: Activity against Diabrotica balteata (corn root worm), maize sprouts sprayed. Format: in vivo. As to conditions: 96 h, application rate 200 ppm, L2 larvae, 4 days after infestation, read-out: effect in at least one of the two categories (mortality or growth inhibition). How it is done:
Example B1: Activity Against Diabrotica balteata (Corn Root Worm)
Maize sprouts placed onto an agar layer in 24-well microtiter plates were treated with aqueous test solutions prepared from 10,000 ppm DMSO stock solutions by spraying. After drying, the plates were infested with L2 larvae (6 to 10 per well). The samples were assessed for mortality and growth inhibition in comparison to untreated samples 4 days after infestation.

Data set [2] concerns Euschistus heros (Neotropical Brown Stink Bug). As to the kind of experiment: Activity against Euschistus heros (neotropical brown stink bug), soybean leaves sprayed. Format: in vivo. As to conditions: 120 h, application rate 200 ppm, N2 nymphs, 5 days after infestation, read-out: effect in at least one of the two categories (mortality or growth inhibition). The procedure:
Example B2: Activity Against Euschistus heros (Neotropical Brown Stink Bug)
Soybean leaves on agar in 24-well microtiter plates were sprayed with aqueous test solutions prepared from 10,000 ppm DMSO stock solutions. After drying the leaves were infested with N2 nymphs. The samples were assessed for mortality and growth inhibition in comparison to untreated samples 5 days after infestation.

Data set [3] relates to Plutella xylostella (Diamond Back Moth). Kind of data set: Activity against Plutella xylostella (diamond back moth), artificial diet. Format: in vivo. The settings on record: 192 h, application rate 200 ppm, eggs, 8 days after infestation, read-out: effect in at least one of the two categories (mortality or growth inhibition). How it is done:
Example B3: Activity Against Plutella xylostella (Diamond Back Moth)
24-well microtiter plates with artificial diet were treated with aqueous test solutions prepared from 10,000 ppm DMSO stock solutions by pipetting. After drying, Plutella eggs were pipetted through a plastic stencil onto a gel blotting paper and the plate was closed with it. The samples were assessed for mortality and growth inhibition in comparison to untreated samples 8 days after infestation.

Data set [4] concerns Myzus persicae (Green Peach Aphid). Kind of data set: Activity against Myzus persicae (green peach aphid), feeding/contact activity. Format: in vivo. As to conditions: 144 h, application rate 200 ppm, feeding/contact, mixed ages, 6 days after infestation, read-out: mortality. The procedure:
Example B4: Activity Against Myzus persicae (Green Peach Aphid) Feeding/Contact Activity
Sunflower leaf discs were placed onto agar in a 24-well microtiter plate and sprayed with aqueous test solutions prepared from 10,000 ppm DMSO stock solutions. After drying, the leaf discs were infested with an aphid population of mixed ages. The samples were assessed for mortality 6 days after infestation.

The test system of data set [5] is Spodoptera littoralis (Egyptian Cotton Leaf Worm). As to the kind of experiment: Activity against Spodoptera littoralis (Egyptian cotton leaf worm), cotton leaf discs. As to conditions: foliar, 72 h, application rate 200 ppm, L1 larvae, 3 days after infestation, read-out: control (mortality, anti-feedant effect or growth inhibition). Format: in vivo. The procedure:
Example B5: Activity Against Spodoptera littoralis (Egyptian Cotton Leaf Worm)
Cotton leaf discs were placed onto agar in 24-well microtiter plates and sprayed with aqueous test solutions prepared from 10,000 ppm DMSO stock solutions. After drying the leaf discs were infested with five L1 larvae. The samples were assessed for mortality, anti-feeding effect, and growth inhibition in comparison to untreated samples 3 days after infestation. Control of Spodoptera littoralis by a test sample is given when at least one of the categories mortality, anti-feedant effect, and growth inhibition is higher than the untreated sample.

The subject of data set [6] is Frankliniella occidentalis (Western Flower Thrips). Kind of data set: Activity against Frankliniella occidentalis (western flower thrips), sunflower leaf discs. Format: in vivo. As to conditions: foliar, 168 h, application rate 200 ppm, mixed ages, 7 days after infestation. The procedure: Example B7: Activity Against Frankliniella occidentalis (Western Flower Thrips)
Sunflower leaf discs were placed on agar in 24-well microtiter plates and sprayed with aqueous test solutions prepared from 10,000 DMSO stock solutions. After drying the leaf discs were infested with a Frankliniella population of mixed ages. The samples were assessed for mortality 7 days after infestation.

In data set [7] the test system is Bemisia tabaci (Cotton White Fly). Kind of data set: Activity against Bemisia tabaci (cotton white fly), cotton leaf discs. The settings on record: foliar, 144 h, application rate 200 ppm, adult white flies, 6 days after incubation. Format: in vivo. How it is done:
Example B6: Activity Against Bemisia tabaci (Cotton White Fly)
Cotton leaf discs were placed on agar in 24-well microtiter plates and sprayed with aqueous test solutions prepared from 10,000 ppm DMSO stock solutions. After drying the leaf discs were infested with adult white flies. The samples were checked for mortality 6 days after incubation.

Data set [8] deals with Myzus persicae (Green Peach Aphid). As to the kind of experiment: Activity against Myzus persicae (green peach aphid), systemic activity, pea seedlings. Format: in vivo. The settings on record: 144 h, test rate 24 ppm, roots in test solution, 6 days. How it is done:
Example B8: Activity Against Myzus persicae (Green Peach Aphid) Systemic Activity
Roots of pea seedlings infested with an aphid population of mixed ages were placed directly into aqueous test solutions prepared from 10,000 DMSO stock solutions. The samples were assessed for mortality 6 days after placing seedlings into test solutions.

In the case of `CCS(=O)(=O)c1ccc(Cl)nc1-c1ncc2c(OCC(F)(F)C(F)(F)F)nccn12`, the melting point fell in the range of 140 to 143 °C.
In the case of `CCS(=O)(=O)c1ccc(N(C)C(C)=O)nc1-c1ncc2c(OCC(F)(F)C(F)(F)F)nccn12` [Compound P11, N-[5-ethylsulfonyl-6-[8-(2,2,3,3,3-penta-fluoropropoxy)imidazo [1,5-a]pyrazin-3-yl]-2-pyridyl]-N-methyl-acetamide], the percent effect (mortality or growth inhibition) at 200 ppm in [1], in data set [2] and in [3] was ≥ 80% each time. For the same compound, the mortality at 200 ppm in data set [4] and in data set [6] was ≥ 80% in each case. Also, the percent control (mortality, anti-feedant effect or growth inhibition) at 200 ppm in data set [5] was ≥ 80%.
Take `CCS(=O)(=O)c1ccc(-n2cncn2)nc1-c1ncc2c(OCC(F)(F)C(F)(F)F)nccn12` [Compound P12, 3-[3-ethylsulfonyl-6-(1,2,4-triazol-1-yl)-2-pyridyl]-8-(2,2,3,3,3-penta-fluoropropoxy)imidazo [1,5-a]pyrazine]: the percent effect (mortality or growth inhibition) at 200 ppm in [1], in [2] and in [3] was ≥ 80% throughout. Besides, the mortality at 200 ppm in data set [4] and in data set [7] was ≥ 80% each time. Moreover, the percent control (mortality, anti-feedant effect or growth inhibition) at 200 ppm in data set [5] was ≥ 80%.
Take `CCS(=O)(=O)c1cc(N(C)C(C)=O)cnc1-c1ncc2c(OCC(F)(F)C(F)(F)F)nccn12` [Compound P13, N-[5-ethylsulfonyl-6-[8-(2,2,3,3,3-penta-fluoropropoxy)imidazo [1,5-a]pyrazin-3-yl]-3-pyridyl]-N-methyl-acetamide]: the percent effect (mortality or growth inhibition) at 200 ppm in data set [1], in [2] and in data set [3] was ≥ 80% in each case. Further, in data set [4], the mortality at 200 ppm was ≥ 80%. The percent control (mortality, anti-feedant effect or growth inhibition) at 200 ppm in data set [5] is ≥ 80%. The mortality at 24 ppm in data set [8] was ≥ 80%.
On to `CCSc1cc(N=S(C)(C)=O)cnc1-c1ncc2c(OCC(F)(F)C(F)(F)F)nccn12` [Compound P17, [5-ethylsulfanyl-6-[8-(2,2,3,3,3-penta-fluoropropoxy)imidazo [1,5-a]pyrazin-3-yl]-3-pyridyl]imino-dimethyl-oxo-λ^6-sulfane], for which the percent effect (mortality or growth inhibition) at 200 ppm in data set [1], in [2] and in [3] was ≥ 80% throughout. For the same compound, in data set [5], the percent control (mortality, anti-feedant effect or growth inhibition) at 200 ppm is ≥ 80%. The mortality at 200 ppm in data set [6] is ≥ 80%.
In the case of `CCS(=O)(=O)c1cc(N=S(C)(C)=O)cnc1-c1ncc2c(OCC(F)(F)C(F)(F)F)nccn12` [Compound P18, [5-ethylsulfonyl-6-[8-(2,2,3,3,3-penta-fluoropropoxy)imidazo [1,5-a]pyrazin-3-yl]-3-pyridyl]imino-dimethyl-oxo-λ^6-sulfane], the percent effect (mortality or growth inhibition) at 200 ppm in data set [1], in data set [2] and in data set [3] was ≥ 80% in each case. In addition, the mortality at 200 ppm in data set [4] and in [6] was ≥ 80% each time. Besides, in data set [5], the percent control (mortality, anti-feedant effect or growth inhibition) at 200 ppm was ≥ 80%.
Consider `CCS(=O)(=O)c1ccc(-c2ncccn2)nc1-c1ncc2c(OCC(F)(F)C(F)(F)F)nccn12` [Compound P25, 3-(3-ethylsulfonyl-6-pyrimidin-2-yl-2-pyridyl)-8-(2,2,3,3,3-penta-fluoropropoxy)imidazo [1,5-a]pyrazine], for which the percent effect (mortality or growth inhibition) at 200 ppm in data set [1], in [2] and in data set [3] was ≥ 80% in each case. Moreover, the mortality at 200 ppm in data set [4] was ≥ 80%. Also, the percent control (mortality, anti-feedant effect or growth inhibition) at 200 ppm in data set [5] is ≥ 80%.
`CCS(=O)(=O)c1cc(OC(C)(C)C#N)cnc1-c1ncc2c(OCC(F)(F)C(F)(F)F)nccn12` [Compound P51, 2-[[5-ethylsulfonyl-6-[8-(2,2,3,3,3-pentafluoropropoxy)imidazo [1,5-a]pyrazin-3-yl]-3-pyridyl]oxy]-2-methyl-propanenitrile]: the percent effect (mortality or growth inhibition) at 200 ppm in [1], in [2] and in [3] was ≥ 80% throughout. The mortality at 200 ppm in data set [4], in [7] and in data set [6] was ≥ 80% each time. For the same compound, the percent control (mortality, anti-feedant effect or growth inhibition) at 200 ppm in data set [5] is ≥ 80%.
In the case of `CCS(=N)(=O)c1cc(OC(C)(C)C#N)cnc1-c1ncc2c(OCC(F)(F)C(F)(F)F)nccn12` (centres unmarked) [Compound P52, 2-[[5-(ethylsulfonimidoyl)-6-[8-(2,2,3,3,3-penta-fluoropropoxy)imidazo [1,5-a]pyrazin-3-yl]-3-pyridyl]oxy]-2-methyl-propanenitrile], the percent effect (mortality or growth inhibition) at 200 ppm in data set [1] and in data set [3] was ≥ 80% each time. The mortality at 200 ppm in data set [4] and in data set [7] was ≥ 80% in each case. Further, the percent control (mortality, anti-feedant effect or growth inhibition) at 200 ppm in data set [5] was ≥ 80%.

Values taken from patent publication US20220061324A1, “PESTICIDALLY ACTIVE HETEROCYCLIC DERIVATIVES WITH SULFUR CONTAINING SUBSTITUENTS” (SYNGENTA CROP PROTECTION AG, priority 2018, published 2022).
